For 6 compounds, inhibition results are on record in patent US8946257B2, “N-containing heteroaryl derivatives as JAK3 kinase inhibitors” (Vectura Limited, priority 2009, dated 2015).

Assay [1] deals with T1, catalytic domain of human JAK2 (Homo sapiens, UniProt O60674).
T1 construct: the catalytic domain of human JAK2
The assay can be described thus: Inhibition of JAK2 activity (Z'-Lyte Kinase Assay kit-Tyr 6 Peptide). In kind it is biochemical. The procedure:
The inhibition of JAK2 kinase activity was determined in 384-well assay microplates using the Z′-Lyte® Kinase Assay kit-Tyr 6 Peptide kit, supplied by Invitrogen (Ref: PV4122), following the manufacturer's instructions.
(§1) In a final volume of 10 μL per well, 2.5 μL of the product to be tested dissolved in 4% DMSO (final concentration of the product to be tested, 0.1-10000 nM) was incubated with 0.5 μg/well of the catalytic domain of human JAK2, 2 μM of the substrate peptide Z′-Lyte® Tyr 6 and 16 μM of ATP; all components were dissolved in 50 mM pH 7.5 Hepes buffer, 10 mM Magnesium chloride (II), 1 mM EGTA and 0.01% Brij® 35. The reaction was started by the addition of said 16 μM ATP; after incubation for 1 hour at 25° C., 5 μL of A Z′-Lyte® Tyr 6 development reagent was added and the mixture was incubated for 1 hour at 25° C. Phosphorylation was then quantified in each well using a Safire2® fluorescence microplate reader from Tecan.

Assay [2] addresses catalytic domain of human JAK3 (Homo sapiens, UniProt P52333). The assay is described as follows: Inhibition of JAK3 activity (Z'-Lyte Kinase Assay kit-Tyr 6 Peptide). The class given is biochemical. The procedure: The inhibition of JAK3 kinase activity was determined in 384-well assay microplates using the Z′-Lyte® Kinase Assay kit-Tyr 6 Peptide kit, supplied by Invitrogan (Ref: PV4122), following the manufacturer's instructions.
as §1, with “0.3 μg/mL” for “0.5 μg/well”, “JAK3 (amino acid sequence […]),” for “JAK2,”, “4” for “16”

Sequence of catalytic domain of human JAK3 (P52333 781-1124 limits assumed): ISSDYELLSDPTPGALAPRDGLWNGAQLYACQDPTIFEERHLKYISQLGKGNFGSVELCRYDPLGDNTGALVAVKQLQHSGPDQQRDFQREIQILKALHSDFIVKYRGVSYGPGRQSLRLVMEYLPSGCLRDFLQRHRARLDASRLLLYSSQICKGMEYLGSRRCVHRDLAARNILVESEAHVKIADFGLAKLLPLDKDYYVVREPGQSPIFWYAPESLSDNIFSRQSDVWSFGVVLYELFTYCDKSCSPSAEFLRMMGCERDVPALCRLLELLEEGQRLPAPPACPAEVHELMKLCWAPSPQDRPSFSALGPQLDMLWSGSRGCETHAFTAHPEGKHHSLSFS
T1 sequence (O60674 849-1124 limits assumed): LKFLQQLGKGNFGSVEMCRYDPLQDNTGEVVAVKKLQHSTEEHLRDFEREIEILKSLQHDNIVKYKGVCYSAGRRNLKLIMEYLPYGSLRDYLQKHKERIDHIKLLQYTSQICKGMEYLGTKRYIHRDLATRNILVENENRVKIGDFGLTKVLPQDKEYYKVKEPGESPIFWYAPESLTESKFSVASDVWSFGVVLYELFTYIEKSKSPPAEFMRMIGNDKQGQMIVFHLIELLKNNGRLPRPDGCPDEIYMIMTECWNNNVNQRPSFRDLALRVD

Consider `Cn1c(=O)n([C@H]2CCCN(C(=O)C3(C#N)CC3)C2)c2nc(-c3cnn4ccccc34)ccc21` [Example 25, (S)-1-(3-(1-Methyl-2-oxo-5-(pyrazolo[1,5-a]pyridin-3-yl)-1H-imidazo[4,5-b]pyridin-3(2H)-yl)piperidine-1-carbonyl)cyclopropanecarbonitrile], for which the inhibition at 1 µM in assay [1] and in assay [2] was above 50% each time.
For the compound `N#Cc1ccn2ncc(-c3ncc4[nH]c(=O)n([C@H]5CCCN(C(=O)C6(C#N)CC6)C5)c4n3)c2c1` [Example 27, (S)-3-(9-(1-(1-Cyanocyclopropanecarbonyl)piperidin-3-yl)-8-oxo-8,9-dihydro-7H-purin-2-yl)pyrazolo[1,5-a]pyridine-5-carbonitrile], the inhibition at 1 µM in assay [1] and in assay [2] was above 50% each time.
Take `Cc1ccn2ncc(-c3ncc4ncn([C@H]5CCCN(C(=O)CC#N)C5)c4n3)c2c1` [Example 29, (S)-3-(3-(2-(5-Methylpyrazolo[1,5-a]pyridin-3-yl)-9H-purin-9-yl)piperidin-1-yl)-3-oxopropanenitrile]: the inhibition at 1 µM in assay [1] and in assay [2] was above 50% in each case.
`CC(=O)OCn1c(=O)n([C@H]2CCCN(C(=O)CC#N)C2)c2nc(-c3cnn4ccccc34)ncc21` [Example 31, (S)-(9-(1-(2-Cyanoacetyl)piperidin-3-yl)-8-oxo-2-(pyrazolo[1,5-a]pyridin-3-yl)-8,9-dihydro-7H-purin-7-yl)methyl acetate]: the inhibition at 1 µM in assay [1] and in assay [2] was above 50% in each case.
On to `Nc1nc2cnc(-c3cnn4ccccc34)nc2n1C1CCOCC1` [Example 33, 2-(Pyrazolo[1,5-a]pyridin-3-yl)-9-(tetrahydro-2H-pyran-4-yl)-9H-purin-8-amine], for which the inhibition at 1 µM in assay [1] and in assay [2] was above 50% in each case.
On to `O=C1CCCN1c1nc2cnc(-c3cnn4ccccc34)nc2n1C1CCOCC1` [Example 34, 1-(2-(Pyrazolo[1,5-a]pyridin-3-yl)-9-(tetrahydro-2H-pyran-4-yl)-9H-purin-8-yl)pyrrolidin-2-one], for which the inhibition at 1 µM in assay [1] and in assay [2] was above 50% each time.
